Patent US20050176804A1, “Method and material for free radical scavenging in human tissue” (priority 2003, published 2005)

Columns and labels:
[1] = tested on: human skin fibroblast cultures; test: Total ROS generation in skin fibroblasts, DCFDA fluorescent probe; format: cell-based
Description: (§1) The anti-oxidative action of indoleacetyl phenylalanine was tested against reactive oxygen species (ROS) using human skin fibroblast cultures. Total ROS generation in skin fibroblasts was measured using the fluorescent dye dichlorofluorescin diacetate (DCFDA) as a probe. DCFDA readily diffuses through cell membranes and is enzymatically hydrolyzed by intracellular esterase to become non-fluorescent dichlorofluorescin (DCFH), which is then oxidized by reactive species (oxidants) to highly fluorescent […] (DCF). Increased antioxidant activity within a cell is marked by a reduction in the fluorescent DCF.
(§2) Positive results were obtained with fibroblasts incubated in both serum-containing and serum-free media (serum proteins, e.g., albumin, can act as antioxidants and skew test results).

skin fibroblasts [2] = test: t-butyl hydroperoxide (t-BHP) induced ROS activity; format: cell-based, human; conditions: serum-free media
Description: as §1

[3] = tested on: cultured human skin fibroblasts; test: RNS suppression, total nitrate plus nitrite (Nox) generation, Greiss assay; format: cell-based; conditions: 60 μg/ml
Description: In addition to ROS activity, indoleacetyl phenylalanine was also tested against radical nitrogen species (RNS) in cultured human skin fibroblasts. To estimate suppression of RNS, total nitrate plus nitrite (Nox) generation was measured using the Greiss assay method. At a concentration of 60 μg/ml, indoleacetyl phenylalanine decreased RNS generation by 33% as compared to an untreated control.

Cu/ZnSOD = Cu/ZnSOD gene expression by Western blotting; format: cell-based; conditions: 15 and 30 μM; human skin fibroblasts
Description: (§3) The antioxidant effects of indoleacetyl phenylalanine was also tested with respect to the production of antioxidant enzymes by means of differential gene expression in human skin fibroblasts. The experiment was conducted with respect to gene expression related to two major defense enzymes, Superoxide Dismutase (SOD) and catalase. […] Gene expression for both enzymes was stimulated at indoleacetyl phenylalanine concentrations of 15 and 30 μM.

catalase = test: Catalase gene expression by Western blotting; format: cell-based; conditions: 15 and 30 μM, particularly increased at 30 μM; human skin fibroblasts
Description: as §3

[4] = tested on: nitric oxide synthase (iNOS); test: iNOS suppression, native and activated states; format: cell-based; conditions: 3-12 μM
Source text: Following previous leads on indoleacetyl phenylalanine's finding as a potent anti-free radical substance, additional experimental evidence was sought to strengthen the earlier findings. Focus at this time was placed on nitric oxide synthase (iNOS), which is the key enzyme for generating a destructive oxidant, nitric oxide. Since this enzyme existed in native and activated states, it was pertinent to check both the enzyme activities to ascertain the inhibitory action of indoleacetyl phenylalanine.

fibroblast COX-2 enzymes = molecular target: T1, fibroblast COX-2 enzymes (Homo sapiens, UniProt P35354); test: Inhibition of fibroblast COX-2 enzymes; format: cell-based
T1 construct: endogenous in cells
T1 sequence (P35354 18-604): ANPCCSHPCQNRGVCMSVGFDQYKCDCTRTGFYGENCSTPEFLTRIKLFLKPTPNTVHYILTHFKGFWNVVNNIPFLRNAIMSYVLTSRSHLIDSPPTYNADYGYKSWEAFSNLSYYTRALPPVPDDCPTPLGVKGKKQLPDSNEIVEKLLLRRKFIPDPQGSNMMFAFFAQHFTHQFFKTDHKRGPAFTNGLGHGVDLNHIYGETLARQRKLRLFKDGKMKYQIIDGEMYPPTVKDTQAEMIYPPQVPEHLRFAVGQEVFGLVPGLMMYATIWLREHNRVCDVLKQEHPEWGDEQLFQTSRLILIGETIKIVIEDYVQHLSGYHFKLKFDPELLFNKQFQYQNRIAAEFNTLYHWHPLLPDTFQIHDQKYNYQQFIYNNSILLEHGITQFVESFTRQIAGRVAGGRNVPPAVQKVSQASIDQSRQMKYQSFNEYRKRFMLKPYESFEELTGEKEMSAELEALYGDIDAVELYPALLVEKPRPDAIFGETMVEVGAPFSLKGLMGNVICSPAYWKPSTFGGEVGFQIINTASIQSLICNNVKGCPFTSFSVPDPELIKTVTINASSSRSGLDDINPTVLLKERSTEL

fibroblasts = test: Cell proliferation / cell viability, MTT method; format: cell-based
Description: Furthermore, to investigate the effects of indole derivatives on cell proliferation as a biological marker, cell viability was assayed using the MTT method.

skin fibroblasts [5] = test: Cell viability of skin fibroblasts during ROS test; format: cell-based, human
Description: as §2

## O=C(Cc1c[nH]c2ccccc12)N[C@@H](Cc1ccccc1)C(=O)O [indoleacetyl phenylalanine]
[1]; 10% serum media, 15, 30, and 60 μM
  antioxidant activity toward ROS generation: significant antioxidant activity
[1]; serum-free media, 7.5, 15, and 30 μM
  antioxidant activity toward ROS generation: exhibited antioxidant activity
Skin fibroblasts [2]
  antioxidant activity against t-BHP induced ROS activity: showed antioxidant activity
[3]
  decrease of RNS generation compared to untreated control: 33%
Cu/ZnSOD
  gene expression for production of Cu/ZnSOD (protein amount): increased gene expression
catalase
  gene expression for production of catalase (protein amount): increased gene expression
[4]
  suppression of iNOS, native state: suppressed iNOS
[4]; activated by 5 μM t-BHP
  suppression of iNOS gene expression activity, activated state: able to suppress iNOS gene expression activity
Fibroblast COX-2 enzymes
  anti-inflammatory effect, COX-2 inhibition: inhibition of fibroblast COX-2 enzymes
fibroblasts; MTT method
  stimulation of cell proliferation compared to untreated controls: 30%
fibroblasts; four-day incubation period
  lowest concentration giving dose-dependent fibroblast proliferation: 2 µM
Skin fibroblasts [5]
  effect on cell viability: without affecting cell viability
